The values below come from patent publication US20090291938A1 (TAKEDA PHARMACEUTICAL COMPANY LIMITED, priority 2007, published 2009).

The structures appear in SMILES notation.

The first assay has as its system HT29 human colorectal adenocarcinoma cell line. The assay can be described thus: cell proliferation assay (Cell Titer-Glo luminescent cell viability assay). The assay is classed as cell-based. The following applies: HT-29, 72 h, read-out: pIC50 (converted). Summed up:
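Cells grown in DMEM with 10% FBS and exposed to compounds for 72 h. Viability read by CellTiter-Glo luminescence, expressed as percentage of DMSO-treated cells.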
(In general: ATP-based viability assays read luminescence as a measure of living cells.)
Regarding `CN1CCC(NC(=O)c2ccc(Nc3ncc4c(n3)N(C3CCCC3)CC(C)(C)C(=O)N4C)c(OC(F)F)c2)CC1` [Compound 127, 4-(9-Cyclopentyl-5,7,7-trimethyl-6-oxo-6,7,8,9-tetrahydro-5H-pyrimido[4,5-b][1,4]diazepin-2-ylamino)-3-(difluoromethoxy)-N-(1-methylpiperidin-4-yl)benzamide], the IC50 is > 10 nM.

Still in this assay, the particulars now being: HT-29, cell proliferative assay, HT29 cells, 72 hr treatment, values given as ranges, read-out: pIC50 (converted).
As for `COc1cc(C(=O)NCCN2CCCC2=O)ccc1Nc1ncc2c(n1)N(C1CCCC1)CCC(=O)N2C` [Compound 46, 4-(9-cyclopentyl-5-methyl-6-oxo-6,7,8,9-tetrahydro-5H-pyrimido[4,5-b][1,4]diazepin-2-ylamino)-3-methoxy-N-(2-(2-oxopyrrolidin-1-yl)ethyl)benzamide], the IC50 was 3.16 to 10 nM.

On to `COc1cc(C(=O)NC2CCN(S(C)(=O)=O)CC2)ccc1Nc1ncc2c(n1)N(C1CCCC1)CCC(=O)N2C` [Compound 37, 4-(9-cyclopentyl-5-methyl-6-oxo-6,7,8,9-tetrahydro-5H-pyrimido[4,5-b][1,4]diazepin-2-ylamino)-3-methoxy N-(1-(methylsulfonyl)piperidin-4-yl)benzamide], for which the IC50 is 3.16 to 10 nM. In the case of `CNCCNC(=O)c1ccc(Nc2ncc3c(n2)N(C2CCCC2)CCC(=O)N3C)c(OC)c1` [Compound 59, 4-(9-cyclopentyl-5-methyl-6-oxo-6,7,8,9-tetrahydro-5H-pyrimido[4,5-b][1,4]diazepin-2-ylamino)-3-methoxy-N-(2-(methylamino)ethyl)benzamide], the IC50 is > 10 nM. For `COc1cc(C(=O)NN2CCN(C)CC2)ccc1Nc1ncc2c(n1)N(C1CCCCC1)CC1(CC1)C(=O)N2C` [Compound 170, 4-(9′-cyclohexyl-5′-methyl-6′-oxo-5′,6′,8′,9′-tetrahydrospiro[cyclopropane-1,7′-pyrimido[4,5-b][1,4]diazepine]-2′-ylamino)-3-methoxy-N-(4-methylpiperazin-1-yl)benzamide], the IC50 is < 1 nM.

On to `COc1cc(C(=O)NC[C@H]2CCCNC2)ccc1Nc1ncc2c(n1)N(C1CCCC1)CCC(=O)N2C` [Compound 64, (S)-4-(9-cyclopentyl-5-methyl-6-oxo-6,7,8,9-tetrahydro-5H-pyrimido[4,5-b][1,4]diazepin-2-ylamino)-3-methoxy-N-(piperidin-3-ylmethyl)benzamide], for which the IC50 is > 10 nM.

For `COc1cc(C(=O)NCCCN(C)C)ccc1Nc1ncc2c(n1)N(C1CCCC1)CC(C)(C)C(=O)N2C` [Compound 89, 4-(9-cyclopentyl-5,7,7-trimethyl-6-oxo-6,7,8,9-tetrahydro-5H-pyrimido[4,5-b][1,4]diazepin-2-ylamino)-N-(3-(dimethylamino)propyl)-3-methoxybenzamide], the IC50 is 3.16 to 10 nM. With `CCN1CCC(NC(=O)c2ccc(Nc3ncc4c(n3)N(C3CCCCC3)CC3(CC3)C(=O)N4C)c(OC)c2)CC1` [Compound 176, 4-(9′-cyclohexyl-5′-methyl-6′-oxo-5′,6′,8′,9′-tetrahydrospiro[cyclopropane-1,7′-pyrimido[4,5-b][1,4]diazepine]-2′-ylamino)-N-(1-ethylpiperidin-4-yl)-3-methoxybenzamide], the IC50 is > 10 nM. The same measure, in the same setting: the figure for `COc1cc(C(=O)NC2CCN(C)CC2)ccc1Nc1ncc2c(n1)N(C1CCCC1C)CC1(CC1)C(=O)N2C` (stereo not shown) [Compound 177, 3-methoxy-4-(5′-methyl-9′-(2-methylcyclopentyl)-6′-oxo-5′,6′,8′,9′-tetrahydrospiro[cyclopropane-1,7′-pyrimido[4,5-b][1,4]diazepine]-2′-ylamino)-N-(1-methylpiperidin-4-yl)benzamide] is < 1 nM; for `CNC(=O)c1ccc(Nc2ncc3c(n2)N(C2CCCC2)CCC(=O)N3C)c(OC)c1` [Compound 10, 4-[(9-cyclopentyl-5-methyl-6-oxo-6,7,8,9-tetrahydro-5H-pyrimido[4,5-b][1,4]diazepin-2-yl)amino]-3-methoxy-N-methylbenzamide] it is 3.16 to 10 nM.
